Source: US20080107603A1, “Neuroprotectant methods, compositions, and screening methods thereof” (priority 2002, published 2008)
Read-outs that look alike come from different tables or passages of the source.

Columns and labels:
PARP = assay: Western blot, Aβ25-35-induced cleavage of PARP; type: cell-based, Rat; settings: 25 μM Aβ25-35, 36 h
Experimental: (§1) After treatment, cells (1×10^7 cells/7 ml in 100φ dish) were collected and washed with PBS. After centrifugation, cell lysis was carried out at 4° C. by vigorous shaking for 15 min in RIPA buffer (150 mM NaCl, 1% NP-40, 0.5% sodium deoxycholate, 0.1% SDS, 50 mM Tris-HCl (pH 7.4), 50 mM glycerphosphate, 20 mM NaF, 20 mM EGTA, 1 mM DTT, 1 mM Na3VO4 and protease inhibitors). After centrifugation at 15,000 rpm for 15 min, supernatant was separated and stored at −70° C. until use. The protein concentration was determined by using the bicinchrinic acid (BCA) protein assay kit (Pierce, Rockford, Ill., USA). After addition of sample loading buffer, protein samples were electrophoresed on a 12.5% SDS-polyacrylamide gel. Proteins were transferred to polyvinylidene difluoride blots at 300 mA for 3 h. The blots were blocked for 1 h at room temperature in fresh blocking buffer (0.1% Tween-20 in Tris-buffered saline, pH 7.4 containing 5% non-fat dried milk). Dilutions (1:1000) of primary anti-poly(ADP-ribose)polymerase (PARP), anti-Bcl-XL and anti-Bax antibodies were made in PBS with 3% non-fat dry milk. Following three washes with PBST (PBS and 0.1% Tween-20), the blots were incubated with horseradish peroxidase-conjugated secondary antibodies in PBS with 3% non-fat dry milk for 1 h at room temperature. […]

[1] = Rat; cited from earlier work
[2] = Rabbit; cited from earlier work
[3] = Man; cited from earlier work
PC12 cells [4] = assay: TUNEL, Aβ25-35-induced apoptosis; type: cell-based, Rat; settings: 25 μM Aβ25-35, 36 h; EGT at 0.5 mM or 1 mM
Experimental: The commercially available in situ death detection kit (Boehringer Mannheim product, Manheim, Germany) was utilized to detect DNA fragmentation. The PC12 cells (5×10^5 cells/1.5 ml in chamber slide) were fixed for 30 min in 10% neutral buffered-formalin solution at room temperature. Endogenous peroxidase was inactivated by incubation with 0.3% (v/v) hydrogen peroxide in methanol for 30 min at room temperature and further incubated in a permeabilizing solution (0.1% sodium citrate and 0.1% Triton X-100) for 2 min at 4° C. The cells were labeled by incubation with the TUNEL reaction mixture for 60 min at 37° C. followed by labeling with peroxidase-conjugated anti-fluorescein anti-goat antibody (Fab fragment) for additional 30 min. After staining with diaminobenzidine for 10 min, cells were rinsed with phosphate-buffered saline (PBS) and mounted with 50% glycerol.

Bax and Bcl-XL = assay: Western blot, levels of Bax and Bcl-XL; type: cell-based, Rat; settings: 25 μM Aβ25-35, 36 h
Experimental: as §1

PC12 cells [5] = assay: Cell death induced by peroxynitrite generating SIN-1 (MTT); type: cell-based, Rat; settings: MTT reduction assay
Experimental: (§2) The MTT assay is a sensitive measurement of the normal metabolic status of cells, particularly that of mitochondria, which reflects early cellular redox changes. After incubation, cells were treated with the MTT solution (final concentration, 1 mg/ml) for 2 h. The dark blue formazan crystals formed in intact cells were dissolved in DMSO, and absorbance at 570 nm was measured with a microplate reader. Results were expressed as the percentage (%) of MTT reduction, assuming that the absorbance of control cells was 100%.

PC12 cells [6] = assay: Cell death induced by the NO releasing compound SNP (MTT); type: cell-based, Rat; settings: MTT reduction assay
Experimental: as §2

[7] = test system: tyrosine hydroxylase positive cells (TH+ cells) in the substantia nigra; assay: 6-OHDA lesion rat model, TH+ cells in the substantia nigra; type: in vivo, Sprague-Dawley rats
Experimental: Male Sprague-Dawley rats with starting weights 225±25 g, were housed in groups of 3 with free access to food and water, under controlled temperature (21° C.±1° C.) and a 12 hour light/dark cycle (light on 07.00 hrs). All scientific procedures were carried out with the approval of the Home Office, U.K. Rats were administered, by gavage, 70 mg/kg of ergothioneine or vehicle (sterile distilled water) daily for 4 days (n=6 per group). On the 4th day, 1 hr after L-ergothioneine or vehicle administration, rats were anaesthetized with small animal Immobilon® (0.04 ml/rat, i.m.), and 6-OHDA (5 μg dissolved in 4 μl of 0.1% ascorbic acid/saline solution) was injected onto median forebrain bundle (stereotactic co-ordinates: 2.2 mm anterior, +1.5 lateral from bregma and −7.9 ventral to dura with ear bars 5 mm below incisor bars (Datla et al. (2001) Neuroreport 12:3871, which reference is herein specifically incorporated by reference in its entirety). One week after 6-OHDA lesioning, rats were killed by cervical dislocation and the brains were dissected out immediately. A coronal section was made at the level of hypothalamus and fore brain, and hind brain parts were separated. Hind-brain was fixed for 7 days in 4% paraformaldehyde, then cryo-protected with 30% sucrose solution for 2-3 days and used for tyrosine hydroxylase (TH) immuno-staining as described by Datla et al. (2001) supra. Briefly, TH was immuno-stained by incubating the 20 μm fixed coronal free-floating sections with polyclonal rabbit anti-TH (1:3000, Chemicon, U.K.) followed by biotinylated anti-rabbit IgG and avidin/biotin complex (Vector Lab, U.K.). The TH immuno-complex was then visualized by diaminobenzidine (DAB) and H2O2. Images of TH positive cells (TH+ cells) were captured by a Xillix CCD digital camera and counted automatically (Image Proplus, Datacell, U.K.). The number of TH+ cells in the substantia nigra on the control side was compared with the lesioned side by averaging the cells in 5 different levels (Datla et al. (2001) supra). […]

## C[N+](C)(C)[C@@H](Cc1c[nH]c(=S)[nH]1)C(=O)[O-] [L-ergothioneine, 2-mercaptohistidine trimethylbetaine]
PARP
  cleavage of PARP: inhibited
[1]
  L-Ergothioneine Concentration (mg/100 ml blood): 1-6 mg/100 ml blood
[2]
  L-Ergothioneine Concentration (mg/100 ml blood): 1-10 mg/100 ml blood
[3]
  L-Ergothioneine Concentration (mg/100 ml blood): 1-4 mg/100 ml blood
PC12 cells [4]
  proportion of TUNEL-positive cells: lowered the proportion of TUNEL-positive cells
Bax and Bcl-XL
  ratio of Bax to Bcl-XL: substantially reduced
PC12 cells [5]
  cytotoxicity induced by the peroxynitrite releasing compound SIN-1: selectively protected
PC12 cells [6]
  cell death mediated by the NO donor SNP: failed to attenuate
[7]; L-ergothioneine vs vehicle treated group
  improvement in terms of neuroprotection over the controls: approximately 20%
[7]; control (unlesioned) side, vs vehicle group
  number of TH+ cells on the control side of the brain: comparable
[7]; lesioned vs control side, 70 mg/kg by gavage, one week after 6-OHDA lesioning
  reduction in the number of TH+ cells: 46%
